The values below come from ChEMBL document CHEMBL5390261, “Agents for the Treatment of Gout: Current Advances and Future Perspectives” (J Med Chem, 2023).

Assay [1] concerns the target T1, Xanthine dehydrogenase/oxidase (Homo sapiens, UniProt P47989). The experiment in a line: Inhibition of XO (unknown origin) using xanthine as substrate assessed as reduction in uric acid formation by double beam spectrophotometric analysis.
Assay [2] has as its target T1, Xanthine dehydrogenase/oxidase. Kind of assay: Inhibition of XO (unknown origin) by microtitre plate analysis.
Assay [3] deals with Xanthine dehydrogenase/oxidase (Bos taurus, UniProt P80457). The experiment in a line: Inhibition of Bovine milk xanthine oxidase using xanthine as substrate assessed as decrease in uric acid level preincubated for 5 mins followed by substrate addition by spectrophotometric analysis.
The target in assay [4] is T1, Xanthine dehydrogenase/oxidase. Kind of assay: Inhibition of XO (unknown origin) using xanthine as substrate preincubated for 3 hrs followed by substrate addition by UV-Vis spectrophotometric analysis.
The target is the same in assay [5]. The experiment in a line: Inhibition of XO (unknown origin).
Assay [6] shares this target. The experiment in a line: Inhibition of XO (unknown origin) using xanthine as substrate assessed as reduction in uric acid formation by FluoSTAR OPTIMA plate reader analysis.

Structures are written as SMILES.

In general, IC50 refers to the concentration that inhibits the measured activity by half.

T1 sequence (P47989 whole entry): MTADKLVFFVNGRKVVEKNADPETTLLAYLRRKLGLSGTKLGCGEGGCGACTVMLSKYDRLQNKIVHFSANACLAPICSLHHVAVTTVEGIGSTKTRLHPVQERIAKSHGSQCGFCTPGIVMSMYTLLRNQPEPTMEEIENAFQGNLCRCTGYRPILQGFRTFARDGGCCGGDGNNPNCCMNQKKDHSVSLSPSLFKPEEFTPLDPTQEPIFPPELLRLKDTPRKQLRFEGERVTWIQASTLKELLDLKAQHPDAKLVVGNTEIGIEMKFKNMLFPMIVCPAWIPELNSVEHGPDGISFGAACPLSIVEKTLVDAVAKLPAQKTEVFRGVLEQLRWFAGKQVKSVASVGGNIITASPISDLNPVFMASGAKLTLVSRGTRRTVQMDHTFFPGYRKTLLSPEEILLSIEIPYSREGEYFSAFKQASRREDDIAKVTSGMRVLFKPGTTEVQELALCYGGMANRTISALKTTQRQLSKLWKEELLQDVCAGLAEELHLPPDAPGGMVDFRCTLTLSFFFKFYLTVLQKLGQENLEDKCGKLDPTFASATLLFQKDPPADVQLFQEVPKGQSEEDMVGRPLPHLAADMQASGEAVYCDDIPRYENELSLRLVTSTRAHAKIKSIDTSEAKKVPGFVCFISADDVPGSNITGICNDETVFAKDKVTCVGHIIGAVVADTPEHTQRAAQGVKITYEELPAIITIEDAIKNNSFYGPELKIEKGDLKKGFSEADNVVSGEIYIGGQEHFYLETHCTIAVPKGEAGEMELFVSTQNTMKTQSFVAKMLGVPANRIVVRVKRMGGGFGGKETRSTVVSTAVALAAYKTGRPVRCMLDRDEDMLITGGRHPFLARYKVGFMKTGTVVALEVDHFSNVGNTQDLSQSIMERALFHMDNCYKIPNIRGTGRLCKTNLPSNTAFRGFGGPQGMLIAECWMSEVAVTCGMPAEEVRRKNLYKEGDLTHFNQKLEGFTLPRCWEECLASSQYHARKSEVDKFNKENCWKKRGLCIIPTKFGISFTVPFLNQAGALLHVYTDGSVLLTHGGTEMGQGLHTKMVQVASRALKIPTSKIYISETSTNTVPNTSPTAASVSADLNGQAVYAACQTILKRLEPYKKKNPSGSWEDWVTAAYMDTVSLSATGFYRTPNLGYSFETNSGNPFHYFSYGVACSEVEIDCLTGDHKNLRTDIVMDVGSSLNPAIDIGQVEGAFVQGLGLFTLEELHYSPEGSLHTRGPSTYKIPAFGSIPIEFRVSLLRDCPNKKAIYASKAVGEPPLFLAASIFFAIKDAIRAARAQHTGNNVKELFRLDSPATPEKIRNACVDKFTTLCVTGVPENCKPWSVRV
Xanthine dehydrogenase/oxidase (Bos taurus, UniProt P80457), sequence (P80457 whole entry): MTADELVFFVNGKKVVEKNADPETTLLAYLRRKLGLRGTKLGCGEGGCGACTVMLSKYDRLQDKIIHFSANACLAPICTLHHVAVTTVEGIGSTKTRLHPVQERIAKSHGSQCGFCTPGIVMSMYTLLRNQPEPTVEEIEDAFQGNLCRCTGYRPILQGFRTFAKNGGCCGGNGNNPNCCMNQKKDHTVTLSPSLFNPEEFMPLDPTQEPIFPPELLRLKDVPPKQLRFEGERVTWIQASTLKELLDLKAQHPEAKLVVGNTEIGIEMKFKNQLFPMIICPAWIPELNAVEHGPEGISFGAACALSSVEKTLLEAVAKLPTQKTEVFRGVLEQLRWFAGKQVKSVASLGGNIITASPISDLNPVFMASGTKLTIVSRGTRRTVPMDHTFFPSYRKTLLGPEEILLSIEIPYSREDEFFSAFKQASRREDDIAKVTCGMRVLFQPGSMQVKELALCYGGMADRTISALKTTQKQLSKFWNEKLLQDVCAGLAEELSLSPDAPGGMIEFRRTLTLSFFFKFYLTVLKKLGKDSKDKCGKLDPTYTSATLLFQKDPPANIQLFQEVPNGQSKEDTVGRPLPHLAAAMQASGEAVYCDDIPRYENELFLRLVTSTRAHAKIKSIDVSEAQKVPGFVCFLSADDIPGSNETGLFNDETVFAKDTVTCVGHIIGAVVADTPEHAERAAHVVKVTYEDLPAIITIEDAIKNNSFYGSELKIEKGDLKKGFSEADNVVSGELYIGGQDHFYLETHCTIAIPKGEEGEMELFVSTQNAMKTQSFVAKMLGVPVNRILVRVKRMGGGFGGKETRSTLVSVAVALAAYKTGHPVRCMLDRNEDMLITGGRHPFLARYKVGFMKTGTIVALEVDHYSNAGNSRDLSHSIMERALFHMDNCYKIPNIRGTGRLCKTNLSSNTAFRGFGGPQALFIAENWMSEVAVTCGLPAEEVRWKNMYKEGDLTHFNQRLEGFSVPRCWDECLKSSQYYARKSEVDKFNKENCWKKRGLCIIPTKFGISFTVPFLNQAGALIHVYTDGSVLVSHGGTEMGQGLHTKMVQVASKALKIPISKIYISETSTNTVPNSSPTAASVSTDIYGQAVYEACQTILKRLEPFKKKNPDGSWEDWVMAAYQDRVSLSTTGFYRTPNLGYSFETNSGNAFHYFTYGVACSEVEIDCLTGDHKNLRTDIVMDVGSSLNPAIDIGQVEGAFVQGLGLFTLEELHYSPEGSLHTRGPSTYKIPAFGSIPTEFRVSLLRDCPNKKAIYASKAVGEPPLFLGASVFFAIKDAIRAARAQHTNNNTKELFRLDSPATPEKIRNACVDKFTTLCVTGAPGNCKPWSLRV

On to `O=c1oc2c(O)ccc(-c3oc4cc(O)cc(O)c4c(=O)c3O)c2s1`, for which, in assay [1], the IC50 stood at 0.05 µM.
`COc1cc(O)cc2c(=O)oc(O)c(C)c12` showed an IC50 in assay [2] of 2.97 µM.
As for `O=c1oc2ccccc2c2c1C(c1cccs1)C=C(c1ccccc1)O2` (configuration not stated), in assay [3], the IC50 was determined as 2.21 µM.
The compound `O=c1cc(-c2ccccc2)oc2cc(O)cc(O)c12` [CHRYSIN] displayed an IC50 in assay [4] of 1.26 µM.
For `O=c1ccc2cc(O)c(O)cc2o1` [ESCULETIN], half-maximal inhibition in assay [2] (IC50) was put at 42 µM.
For the compound `O=c1c(-c2ccc(O)cc2)coc2cc(O)cc(O)c12` [GENISTEIN], half-maximal inhibition in assay [5] (IC50) was put at 3.53 µM.
Take `COc1ccc([C@@H]2CC(=O)c3c(O)cc(O)cc3O2)cc1O` [HESPERETIN]: the IC50 in assay [6] came out at 0.84 µM.
